Test results reported in patent US12275731B2, “Azaindole inhibitors of wild-type and mutant forms of LRRK2” (DANA-FARBER CANCER INSTITUTE, INC., priority 2018, dated 2025).

Assays:
Experiment in all cases: KinomeScan profiling
Assay type in all cases: binding
DRAK2 = target: T1, DRAK2 (Homo sapiens, UniProt O94768); conditions: DRAK2, 1 μM; read-out: % control
T1 sequence (O94768 1-372): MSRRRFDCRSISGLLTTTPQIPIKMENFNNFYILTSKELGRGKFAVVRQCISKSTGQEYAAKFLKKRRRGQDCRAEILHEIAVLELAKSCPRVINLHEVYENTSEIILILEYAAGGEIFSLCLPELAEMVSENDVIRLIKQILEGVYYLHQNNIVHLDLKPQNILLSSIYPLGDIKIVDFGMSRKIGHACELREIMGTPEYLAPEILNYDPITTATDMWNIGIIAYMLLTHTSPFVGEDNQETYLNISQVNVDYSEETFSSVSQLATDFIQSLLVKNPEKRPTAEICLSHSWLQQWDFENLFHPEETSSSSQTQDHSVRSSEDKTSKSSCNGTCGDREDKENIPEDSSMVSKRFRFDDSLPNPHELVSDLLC
Outline: (§1)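 Selectivity was assessed by binding competition at 1 μM against 468 kinases. Values below 35% of control define an interaction.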

KIT-autoinhibited = target: T2, KIT-autoinhibited (Homo sapiens, UniProt P10721); conditions: read-out: % control
T2 construct: purchased KinomeScan®
T2 sequence (P10721 544-976 limits assumed): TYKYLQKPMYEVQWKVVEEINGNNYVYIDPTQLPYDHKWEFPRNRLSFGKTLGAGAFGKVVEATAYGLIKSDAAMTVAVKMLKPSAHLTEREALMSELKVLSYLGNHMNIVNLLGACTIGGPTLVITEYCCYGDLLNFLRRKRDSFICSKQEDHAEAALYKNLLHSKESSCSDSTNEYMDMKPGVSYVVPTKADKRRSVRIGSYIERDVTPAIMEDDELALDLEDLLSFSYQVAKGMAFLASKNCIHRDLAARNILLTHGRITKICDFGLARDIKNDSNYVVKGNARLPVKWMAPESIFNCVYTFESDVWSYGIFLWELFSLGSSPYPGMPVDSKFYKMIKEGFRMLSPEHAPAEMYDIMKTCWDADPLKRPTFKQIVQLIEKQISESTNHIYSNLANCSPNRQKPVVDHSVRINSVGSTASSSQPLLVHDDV
Outline: as §1

YANK2 = YANK2 (Homo sapiens, UniProt Q9NY57); conditions: YANK2, 1 μM; read-out: % control
Chain of YANK2 (Q9NY57 whole entry): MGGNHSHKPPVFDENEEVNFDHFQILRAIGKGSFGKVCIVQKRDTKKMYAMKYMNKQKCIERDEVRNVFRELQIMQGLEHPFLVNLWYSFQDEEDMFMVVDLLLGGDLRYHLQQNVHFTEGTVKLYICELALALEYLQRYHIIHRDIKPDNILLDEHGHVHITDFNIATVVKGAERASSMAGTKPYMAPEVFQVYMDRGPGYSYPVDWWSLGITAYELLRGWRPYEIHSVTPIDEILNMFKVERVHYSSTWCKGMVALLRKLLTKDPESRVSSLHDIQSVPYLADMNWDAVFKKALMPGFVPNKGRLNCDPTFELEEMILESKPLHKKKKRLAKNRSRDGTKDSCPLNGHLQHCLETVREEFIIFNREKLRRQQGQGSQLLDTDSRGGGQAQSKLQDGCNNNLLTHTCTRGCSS
Outline: as §1

[1] = target: T3, RPS6KA5(Kin.Dom.1-N-terminal) (Homo sapiens, UniProt O75582); conditions: read-out: % control
T3 construct: RPS6KA5(Kin.Dom.1-N-terminal)
T3 sequence (O75582 49-318 limits assumed): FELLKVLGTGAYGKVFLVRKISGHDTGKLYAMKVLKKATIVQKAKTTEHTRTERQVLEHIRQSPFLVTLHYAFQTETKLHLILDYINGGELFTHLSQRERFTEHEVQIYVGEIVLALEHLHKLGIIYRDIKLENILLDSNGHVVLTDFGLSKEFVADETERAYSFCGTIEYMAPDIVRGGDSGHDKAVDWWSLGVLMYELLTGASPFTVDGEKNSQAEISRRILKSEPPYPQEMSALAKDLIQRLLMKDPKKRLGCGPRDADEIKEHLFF
Outline: as §1

PAK3 = PAK3 (Homo sapiens, UniProt O75914); conditions: PAK3, 1 μM; read-out: % control
Chain of PAK3 (O75914 whole entry): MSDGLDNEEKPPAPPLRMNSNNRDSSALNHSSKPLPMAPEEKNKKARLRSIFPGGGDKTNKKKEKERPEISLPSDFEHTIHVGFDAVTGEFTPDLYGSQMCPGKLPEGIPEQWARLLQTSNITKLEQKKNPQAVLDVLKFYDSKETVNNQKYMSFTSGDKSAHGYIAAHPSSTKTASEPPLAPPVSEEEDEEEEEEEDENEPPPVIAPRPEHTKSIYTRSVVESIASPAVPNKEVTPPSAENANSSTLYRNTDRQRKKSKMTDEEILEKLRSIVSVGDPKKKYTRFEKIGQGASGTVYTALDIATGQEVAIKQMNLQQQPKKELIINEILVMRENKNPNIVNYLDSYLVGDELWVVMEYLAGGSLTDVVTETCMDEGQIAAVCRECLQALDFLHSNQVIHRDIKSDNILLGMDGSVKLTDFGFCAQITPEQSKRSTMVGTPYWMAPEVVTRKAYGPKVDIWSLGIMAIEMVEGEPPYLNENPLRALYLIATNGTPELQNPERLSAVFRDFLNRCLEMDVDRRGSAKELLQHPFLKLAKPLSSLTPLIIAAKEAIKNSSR
Outline: as §1

TGFBR1 = target: T4, TGFBR1 (Homo sapiens, UniProt P36897); conditions: TGFBR1, 1 μM; read-out: % control
T4 sequence (P36897 34-503): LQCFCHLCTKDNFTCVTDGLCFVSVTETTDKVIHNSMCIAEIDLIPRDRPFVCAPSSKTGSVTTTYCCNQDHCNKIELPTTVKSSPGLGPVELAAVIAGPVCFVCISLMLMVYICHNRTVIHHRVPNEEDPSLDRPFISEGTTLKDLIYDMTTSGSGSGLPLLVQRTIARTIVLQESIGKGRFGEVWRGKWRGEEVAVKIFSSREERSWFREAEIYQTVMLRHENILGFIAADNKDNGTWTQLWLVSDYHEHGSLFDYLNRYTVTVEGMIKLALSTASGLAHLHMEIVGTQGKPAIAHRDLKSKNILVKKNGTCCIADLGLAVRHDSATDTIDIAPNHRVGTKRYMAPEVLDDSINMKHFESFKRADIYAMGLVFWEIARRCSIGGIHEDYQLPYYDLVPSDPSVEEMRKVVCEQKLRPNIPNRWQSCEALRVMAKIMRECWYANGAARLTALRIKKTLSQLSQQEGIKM
Outline: as §1

RIPK4 = target: T5, RIPK4 (Homo sapiens, UniProt P57078); conditions: RIPK4, 1 μM; read-out: % control
T5 sequence (P57078 1-832): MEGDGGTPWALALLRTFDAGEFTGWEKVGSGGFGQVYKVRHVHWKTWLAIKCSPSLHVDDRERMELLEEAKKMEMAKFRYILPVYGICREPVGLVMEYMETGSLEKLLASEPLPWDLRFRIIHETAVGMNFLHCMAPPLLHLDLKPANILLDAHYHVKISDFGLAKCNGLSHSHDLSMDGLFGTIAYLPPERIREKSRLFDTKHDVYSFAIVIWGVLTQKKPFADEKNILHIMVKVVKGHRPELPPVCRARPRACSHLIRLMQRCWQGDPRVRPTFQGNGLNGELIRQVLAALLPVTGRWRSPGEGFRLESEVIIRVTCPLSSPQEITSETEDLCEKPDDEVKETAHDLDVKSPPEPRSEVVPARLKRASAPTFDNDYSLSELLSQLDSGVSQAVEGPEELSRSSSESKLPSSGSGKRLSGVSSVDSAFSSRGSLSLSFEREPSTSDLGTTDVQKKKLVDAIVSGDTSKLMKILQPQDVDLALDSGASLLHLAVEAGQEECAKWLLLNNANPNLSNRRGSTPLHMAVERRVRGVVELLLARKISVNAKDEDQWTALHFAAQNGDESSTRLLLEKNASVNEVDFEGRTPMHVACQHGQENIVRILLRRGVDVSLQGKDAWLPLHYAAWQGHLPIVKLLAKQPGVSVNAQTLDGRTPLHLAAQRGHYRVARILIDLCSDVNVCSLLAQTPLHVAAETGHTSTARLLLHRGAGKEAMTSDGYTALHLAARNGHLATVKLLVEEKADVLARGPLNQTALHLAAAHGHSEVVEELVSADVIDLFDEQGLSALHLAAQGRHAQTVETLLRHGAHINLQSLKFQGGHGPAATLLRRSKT
Outline: as §1

ERBB2 = ERBB2 (Homo sapiens, UniProt P04626); conditions: ERBB2, 1 μM; read-out: % control
Chain of ERBB2 (P04626 23-1255): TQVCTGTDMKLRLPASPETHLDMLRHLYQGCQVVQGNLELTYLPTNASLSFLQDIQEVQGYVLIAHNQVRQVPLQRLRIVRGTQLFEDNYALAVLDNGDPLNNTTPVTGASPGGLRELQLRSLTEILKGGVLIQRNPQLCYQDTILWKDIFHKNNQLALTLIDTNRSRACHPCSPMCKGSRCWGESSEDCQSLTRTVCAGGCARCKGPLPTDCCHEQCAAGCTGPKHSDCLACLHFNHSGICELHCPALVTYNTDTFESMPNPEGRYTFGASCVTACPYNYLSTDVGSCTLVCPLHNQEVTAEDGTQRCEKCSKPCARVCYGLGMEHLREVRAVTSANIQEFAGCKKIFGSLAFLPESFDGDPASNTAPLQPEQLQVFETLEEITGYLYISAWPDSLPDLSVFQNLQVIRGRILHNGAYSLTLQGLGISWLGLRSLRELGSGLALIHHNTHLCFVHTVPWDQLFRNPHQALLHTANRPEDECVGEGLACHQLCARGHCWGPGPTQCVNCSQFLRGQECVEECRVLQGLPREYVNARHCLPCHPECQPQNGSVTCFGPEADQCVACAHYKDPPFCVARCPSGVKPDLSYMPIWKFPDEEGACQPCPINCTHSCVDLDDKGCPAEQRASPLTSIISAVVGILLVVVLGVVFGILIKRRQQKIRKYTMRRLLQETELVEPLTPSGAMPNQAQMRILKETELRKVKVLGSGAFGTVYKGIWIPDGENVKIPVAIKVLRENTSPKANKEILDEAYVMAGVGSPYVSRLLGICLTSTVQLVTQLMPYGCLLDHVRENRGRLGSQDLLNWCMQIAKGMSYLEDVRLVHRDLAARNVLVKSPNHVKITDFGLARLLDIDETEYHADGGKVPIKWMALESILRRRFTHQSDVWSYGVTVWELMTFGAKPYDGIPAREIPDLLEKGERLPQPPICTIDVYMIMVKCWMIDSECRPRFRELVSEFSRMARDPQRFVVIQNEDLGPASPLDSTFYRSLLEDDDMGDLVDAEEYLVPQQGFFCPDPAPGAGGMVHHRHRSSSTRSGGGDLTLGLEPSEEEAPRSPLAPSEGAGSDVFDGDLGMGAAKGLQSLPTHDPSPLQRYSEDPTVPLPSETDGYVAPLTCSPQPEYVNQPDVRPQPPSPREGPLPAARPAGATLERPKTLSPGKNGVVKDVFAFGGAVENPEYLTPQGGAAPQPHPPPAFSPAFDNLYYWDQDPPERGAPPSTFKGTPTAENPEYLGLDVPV
Outline: as §1

BRK = BRK (Homo sapiens, UniProt Q13882); conditions: read-out: % control
Chain of BRK (Q13882 whole entry): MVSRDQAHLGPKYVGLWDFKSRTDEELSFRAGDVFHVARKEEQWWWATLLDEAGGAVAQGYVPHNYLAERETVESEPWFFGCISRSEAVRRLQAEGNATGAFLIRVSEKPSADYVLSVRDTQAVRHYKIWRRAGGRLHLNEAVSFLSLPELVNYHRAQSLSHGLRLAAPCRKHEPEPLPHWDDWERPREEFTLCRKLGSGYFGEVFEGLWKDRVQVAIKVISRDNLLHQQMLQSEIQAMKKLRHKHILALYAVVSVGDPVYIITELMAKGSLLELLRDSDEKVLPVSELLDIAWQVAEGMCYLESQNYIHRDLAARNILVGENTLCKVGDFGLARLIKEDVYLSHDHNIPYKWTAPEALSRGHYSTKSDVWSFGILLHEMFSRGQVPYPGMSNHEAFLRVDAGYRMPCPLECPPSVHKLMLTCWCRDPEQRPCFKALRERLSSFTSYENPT
Outline: as §1

CAMK1B = CAMK1B (Homo sapiens, UniProt Q6P2M8); conditions: read-out: % control
Chain of CAMK1B (Q6P2M8 whole entry): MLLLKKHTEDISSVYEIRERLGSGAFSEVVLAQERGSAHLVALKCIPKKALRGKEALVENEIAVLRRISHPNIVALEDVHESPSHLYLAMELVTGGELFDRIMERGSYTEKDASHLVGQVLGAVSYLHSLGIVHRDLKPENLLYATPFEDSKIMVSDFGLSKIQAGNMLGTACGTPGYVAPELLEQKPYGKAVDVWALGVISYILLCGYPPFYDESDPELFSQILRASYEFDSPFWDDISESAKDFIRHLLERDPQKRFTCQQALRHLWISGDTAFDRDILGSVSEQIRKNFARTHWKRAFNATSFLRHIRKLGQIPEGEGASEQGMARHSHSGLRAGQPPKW
Outline: as §1

KIT(A829P) = target: T6, KIT(A829P) (Homo sapiens, UniProt P10721, A829P); conditions: read-out: % control
T6 construct: purchased KinomeScan®
T6 sequence (P10721 26-976 A829P): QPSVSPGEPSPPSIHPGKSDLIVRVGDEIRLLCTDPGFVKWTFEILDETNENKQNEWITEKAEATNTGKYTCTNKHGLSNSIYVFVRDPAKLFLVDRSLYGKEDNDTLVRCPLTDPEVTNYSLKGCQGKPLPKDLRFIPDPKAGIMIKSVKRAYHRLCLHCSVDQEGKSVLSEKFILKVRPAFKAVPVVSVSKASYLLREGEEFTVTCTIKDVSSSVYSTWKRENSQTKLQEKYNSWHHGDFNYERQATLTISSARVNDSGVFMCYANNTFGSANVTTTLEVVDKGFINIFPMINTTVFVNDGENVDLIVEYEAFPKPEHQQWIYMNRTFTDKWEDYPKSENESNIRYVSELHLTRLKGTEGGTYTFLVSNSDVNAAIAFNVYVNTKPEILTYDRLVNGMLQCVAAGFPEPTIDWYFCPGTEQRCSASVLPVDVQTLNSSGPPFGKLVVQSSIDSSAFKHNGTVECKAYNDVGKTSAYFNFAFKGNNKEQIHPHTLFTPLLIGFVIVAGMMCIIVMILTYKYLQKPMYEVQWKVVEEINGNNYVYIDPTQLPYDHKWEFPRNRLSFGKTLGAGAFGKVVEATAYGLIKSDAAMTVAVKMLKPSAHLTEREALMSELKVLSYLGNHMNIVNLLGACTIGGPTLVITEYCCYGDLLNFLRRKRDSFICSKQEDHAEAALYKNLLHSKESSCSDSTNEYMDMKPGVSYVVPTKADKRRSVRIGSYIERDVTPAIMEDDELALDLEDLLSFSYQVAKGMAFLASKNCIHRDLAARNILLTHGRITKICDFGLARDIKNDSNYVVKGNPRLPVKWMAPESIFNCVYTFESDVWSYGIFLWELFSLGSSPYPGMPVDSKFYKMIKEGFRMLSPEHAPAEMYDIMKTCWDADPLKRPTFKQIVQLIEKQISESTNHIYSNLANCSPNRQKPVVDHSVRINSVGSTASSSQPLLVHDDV
Outline: as §1

Structure (SMILES) | remaining binding at 1 µM (DRAK2) | remaining binding at 1 µM (KIT-autoinhibited) | remaining binding at 1 µM (YANK2) | remaining binding at 1 µM [1] | remaining binding at 1 µM (PAK3) | remaining binding at 1 µM (TGFBR1) | remaining binding at 1 µM (RIPK4) | remaining binding at 1 µM (ERBB2) | remaining binding at 1 µM (BRK) | remaining binding at 1 µM (CAMK1B) | remaining binding at 1 µM (KIT(A829P))
CNc1c(-c2cnn([C@H]3CCN(C(C)=O)C[C@@H]3F)c2)cnc2[nH]cc(Cl)c12 [Compound 77, 1-((3S,4S)-4-(4-(3-chloro-4-(methylamino)-1H-pyrrolo[2,3-b]pyridin-5-yl)-1H-pyrazol-1-yl)-3-fluoropiperidin-1-yl)ethan-1-one] | 47% | 23% | 100% | 100% | 97% | 60% | 1.3% | 63% | 95% | 74% | 46%
CNc1c(-c2ccc(C(=O)N3CCC(N4CCOCC4)CC3)cc2)cnc2[nH]cc(Cl)c12 [Compound 96, (4-(3-chloro-4-(methylamino)-1H-pyrrolo[2,3-b]pyridin-5-yl)phenyl)(4-morpholinopiperidin-1-yl)methanone] | 19% | 64% | 100% | 100% | 74% | 56% | 7.8% | 80% | 78% | 87% | 53%
O=C(c1ccc(-c2cnc3[nH]cc(Cl)c3c2NC2CCCC2)cc1)N1CCC(N2CCOCC2)CC1 [Compound 101, (4-(3-chloro-4-(cyclopentylamino)-1H-pyrrolo[2,3-b]pyridin-5-yl)phenyl)(4-morpholinopiperidin-1-yl)methanone] | 92% | 100% | 100% | 90% | 86% | 100% | 100% | 92% | 86% | 69% | 100%
